Results from patent publication US8633242B2, “Benzylidene indanones and processes for preparation and use thereof” (Council of Scientific and Industrial Research, priority 2011, dated 2014).
Entries after “also recorded” stand apart in the source; their conditions may differ.

Key:
Format in all cases: cell-based, human
DU-145 (prostate) = assay: Sulphorhodamine B cytotoxicity assay, DU-145; parameters: key to Human cancer cell lines IC50, DU-145 (prostate): Inactive: inactive, if IC50 > 100 μM; conditions: SRB assay, 48 hours incubation
Protocol: (§1) The benzylidene analogues were evaluated by Sulphorhodamine B Assay as per reported method [Skehan et al., J. Natl. Cancer Inst. 1990, 82, 1107]. The human cancer cell lines procured from National Cancer institute, Frederick, U.S.A. were used in present study. Cells were grown in tissue culture flasks in complete growth medium (RPMI-1640 medium with 2 mM glutamine, pH 7.4 supplemented with 10% fetal bovine serum, 100 μg/ml streptomycin and 100 units/ml penicillin) in a carbon dioxide incubator (37° C., 5% CO2, 90% RH). The cells at subconfluent stage were harvested from the flask by treatment with trypsin (0.05% in PBS (pH 7.4) containing 0.02% EDTA). Cells with viability of more than 98%, as determined by trypan blue exclusion, were used for determination of cytotoxicity. The cell suspension required concentration of cells was prepared in complete growth medium. Stock solution of 2×10^−2 M of compounds were prepared in DMSO and further dilution was carried out complete growth medium containing 50 μg/ml of gentamycin to obtained working test solution of required concentration. In vitro cytotoxicity against various human cancer cell lines was determined using 96-well cell culture plates. The 100 μl of cell suspension was added to each well of the 96-well cell culture plates. The cells were allowed to grow in CO2 incubator (37° C., 5% CO2, 90% RH) for 24 hours. The test materials in complete growth medium (100 μl) were added after 24 hours incubation to the wells containing cell suspension. The plates were further incubated for 48 hours (37° C. in an atmosphere of 5% CO2 and 90% relative humidity) in a carbon dioxide incubator after addition of test material and then the cell growth was stopped by gently layering trichloroacetic acid (50% TCA, 50 μl) on top of the medium in all the wells. The plates were incubated at 4° C. for one hour to fix the cells attached to the bottom of the wells. The liquid of all the wells was gently pipetted out and discarded. The plates were washed five times with distilled water to remove TCA, growth medium low molecular weight metabolites, serum proteins etc. and air-dried. Cell growth was measured by staining with sulforhodamine B dye. The adsorbed dye was dissolved in Tris-HCl Buffer (100 μl/well, 0.01M, pH 10.4) and plates were gently stirred for 10 minutes on a mechanical stirrer. The optical density (OD) was recorded on ELISA reader at 540 nm. 5-Fluorouracil, Paclitaxel (Taxol), Mitomycin-c and Adriamycin were used as positive controls.

MCF-7 (Breast cancer) = assay: Sulphorhodamine B cytotoxicity assay, MCF-7
Protocol: as §1

THP-1 (Leukemia) = assay: Sulphorhodamine B cytotoxicity assay, THP-1
Protocol: as §1

A549 (Lung) = assay: Sulphorhodamine B cytotoxicity assay, A549; conditions: Homo sapiens, A549; SRB assay, 48 hours incubation; read-out: Human cancer cell lines IC50, A549 (Lung)
Protocol: as §1

PC-3 (prostate) = assay: Sulphorhodamine B cytotoxicity assay, PC-3; parameters: key to Human cancer cell lines IC50, PC-3 (prostate): Inactive: inactive, if IC50 > 100 μM; conditions: SRB assay, 48 hours incubation
Protocol: as §1

`COc1cc(C2/C(=C/c3ccc4c(c3)OCO4)C(=O)c3cc(OC)c(OC)c(OC)c32)cc(OC)c1OC` (racemic) [Compound 8, 2-(3,4-Methylenedioxybenzylidine), 3-(3,4,5-trimethoxyphenyl), 4,5,6-trimethoxyindanone] was tested, and the “Human cancer cell lines IC50, DU-145 (prostate)” value (DU-145 (prostate)) was “Inactive”, the “anticancer activity against human breast cancer cells (MCF-7), in words” value (MCF-7 (Breast cancer)) was “better activity; also recorded: potent anticancer activity” and the IC50 (MCF-7 (Breast cancer); Homo sapiens, MCF7, SRB assay, 48 hours incubation, read-out: Human cancer cell lines IC50, MCF-7 (Breast cancer)) was 0.01 µM. For the same compound, the “activity against leukemia cell lines (THP), in words” value (THP-1 (Leukemia)) was “potent activity”, the IC50 (THP-1 (Leukemia); Homo sapiens, THP-1, SRB assay, 48 hours incubation, read-out: Human cancer cell lines IC50, THP-1 (Leukemia)) was 4.9 µM and the IC50 (A549 (Lung)) was 11 µM. For the same compound, the “Human cancer cell lines IC50, PC-3 (prostate)” value (PC-3 (prostate)) was “Inactive”.
